The assay concerns MV-4-11 cells. Kind of assay: Gene expression microarray analysis (Affymetrix PrimeView) and GSEA. More on the design: RFU PODN (11730768_x_at) / Fold change /veh PODN (11730768_x_at) / RFU LINC00158 (11744669_a_at) / Fold change /veh LINC00158 (11744669_a_at) / RFU DUSP10 (11751237_a_at) / Fold change /veh DUSP10 (11751237_a_at) / RFU ID3 (11757404_x_at) / Fold change /veh ID3 (11757404_x_at) / RFU PLEKHG5 (11737974_s_at) / Fold change /veh PLEKHG5 (11737974_s_at) / RFU LRRC4B (11730491_at) / Fold change /veh LRRC4B (11730491_at) / RFU GIMAP4 (11747438_a_at) / Fold change /veh GIMAP4 (11747438_a_at) / RFU KRT8 (11758183_x_at) / Fold change /veh KRT8 (11758183_x_at) / RFU CNN1 (11734310_a_at) / Fold change /veh CNN1 (11734310_a_at) / RFU VPS37D (11726825_at) / Fold change /veh VPS37D (11726825_at) / RFU C10orf10 (11716522_x_at) / Fold change /veh C10orf10 (11716522_x_at) / RFU KIR2DL2 /// KIR2DL4 /// KIR2DL5A /// KIR2DL5B /// KIR2DS1 /// KIR2DS2 /// KIR2DS3 /// KIR2DS4 /// KIR3DL3 /// KIR3DL3 /// KIR3DS1 (11738374_at) / Fold change /veh KIR2DL2 /// KIR2DL4 /// KIR2DL5A /// KIR2DL5B /// KIR2DS1 /// KIR2DS2 /// KIR2DS3 /// KIR2DS4 /// KIR3DL3 /// KIR3DL3 /// KIR3DS1 (11738374_at) / RFU C1QL1 (11718748_at) / Fold change /veh C1QL1 (11718748_at) / RFU TMPRSS4 (11747572_a_at) / Fold change /veh TMPRSS4 (11747572_a_at) / RFU HAMP (11756126_x_at) / Fold change /veh HAMP (11756126_x_at) / RFU RNFT2 (11725882_a_at) / Fold change /veh RNFT2 (11725882_a_at) / RFU NR4A2 (11747474_a_at) / Fold change /veh NR4A2 (11747474_a_at) / RFU ABCC12 (11746883_a_at) / Fold change /veh ABCC12 (11746883_a_at) / RFU TMEM136 (11760407_x_at) / Fold change /veh TMEM136 (11760407_x_at) / RFU CLDN22 /// WWC2 (11732394_at) / Fold change /veh CLDN22 /// WWC2 (11732394_at) / RFU HLA-DPB1 (11760878_x_at) / Fold change /veh HLA-DPB1 (11760878_x_at) / RFU SPINT1 (11716480_a_at) / Fold change /veh SPINT1 (11716480_a_at) / RFU GAP43 (11754022_s_at) / Fold change /veh GAP43 (11754022_s_at) / RFU A4GNT (11735810_at) / Fold change /veh A4GNT (11735810_at) / RFU PRB3 (11715151_x_at) / Fold change /veh PRB3 (11715151_x_at) / RFU TUBB4B (11761932_at) / Fold change /veh TUBB4B (11761932_at) / RFU CAPN14 (11732068_a_at) / Fold change /veh CAPN14 (11732068_a_at) / RFU TMCC2 (11721928_a_at) / Fold change /veh TMCC2 (11721928_a_at) / RFU IRGQ (11745062_a_at) / Fold change /veh IRGQ (11745062_a_at) / RFU FAM174B (11720279_a_at) / Fold change /veh FAM174B (11720279_a_at) / RFU TMPRSS4 (11748680_a_at) / Fold change /veh TMPRSS4 (11748680_a_at) / RFU FAM212B (11763350_a_at) / Fold change /veh FAM212B (11763350_a_at) / RFU PLEKHG5 (11743358_a_at) / Fold change /veh PLEKHG5 (11743358_a_at) / RFU ZSCAN30 (11745921_a_at) / Fold change /veh ZSCAN30 (11745921_a_at) / RFU CMKLR1 (11741424_a_at) / Fold change /veh CMKLR1 (11741424_a_at) / RFU LOC101060620 /// MAPK8IP1 (11723275_at) / Fold change /veh LOC101060620 /// MAPK8IP1 (11723275_at) / RFU SPTSSB (11747773_x_at) / Fold change /veh SPTSSB (11747773_x_at) / RFU PRSS12 (11739890_at) / Fold change /veh PRSS12 (11739890_at) / RFU BIN1 (11741810_x_at) / Fold change /veh BIN1 (11741810_x_at) / RFU WNT11 (11732464_a_at) / Fold change /veh WNT11 (11732464_a_at) / RFU C10orf10 (11716521_a_at) / Fold change /veh C10orf10 (11716521_a_at) / RFU C5orf56 (11738089_at) / Fold change /veh C5orf56 (11738089_at) / RFU CYB561 (11721691_x_at) / Fold change /veh CYB561 (11721691_x_at) / RFU ANKRD19P (11752326_a_at) / Fold change /veh ANKRD19P (11752326_a_at) / RFU OR2T12 /// OR2T33 /// OR2T8 (11738714_s_at) / Fold change /veh OR2T12 /// OR2T33 /// OR2T8 (11738714_s_at) / RFU VCAN (11748164_a_at) / Fold change /veh VCAN (11748164_a_at) / RFU JSRP1 (11732532_at) / Fold change /veh JSRP1 (11732532_at) / RFU KRTAP10-11 (11738290_x_at) / Fold change /veh KRTAP10-11 (11738290_x_at) / RFU MYO3A (11730013_a_at) / Fold change /veh MYO3A (11730013_a_at) / RFU EBF3 (11725865_a_at) / Fold change /veh EBF3 (11725865_a_at) / RFU CAMK2N1 (11719241_x_at) / Fold change /veh CAMK2N1 (11719241_x_at) / RFU C5orf56 (11738088_a_at) / Fold change /veh C5orf56 (11738088_a_at) / RFU OLFML3 (11715873_a_at) / Fold change /veh OLFML3 (11715873_a_at) / RFU LOC100653217 /// NTM (11731650_a_at) / Fold change /veh LOC100653217 /// NTM (11731650_a_at) / RFU MAPK11 (11762145_a_at) / Fold change /veh MAPK11 (11762145_a_at) / RFU FIZ1 (11724087_x_at) / Fold change /veh FIZ1 (11724087_x_at) / RFU OASL (11726364_x_at) / Fold change /veh OASL (11726364_x_at) / RFU SOX15 (11748057_x_at) / Fold change /veh SOX15 (11748057_x_at) / RFU CD79A (11719716_a_at) / Fold change /veh CD79A (11719716_a_at) / RFU HIST1H1D (11736915_at) / Fold change /veh HIST1H1D (11736915_at) / RFU CASKIN2 (11723855_a_at) / Fold change /veh CASKIN2 (11723855_a_at) / RFU LOC730098 (11760151_x_at) / Fold change /veh LOC730098 (11760151_x_at) / RFU OR4N2 (11742367_at) / Fold change /veh OR4N2 (11742367_at) / RFU PRRT2 (11749266_a_at) / Fold change /veh PRRT2 (11749266_a_at) / RFU SNX32 (11753110_a_at) / Fold change /veh SNX32 (11753110_a_at) / RFU CDHR5 (11726645_a_at) / Fold change /veh CDHR5 (11726645_a_at) / RFU RCAN1 (11760418_a_at) / Fold change /veh RCAN1 (11760418_a_at) / RFU FAM167A (11723789_a_at) / Fold change /veh FAM167A (11723789_a_at) / RFU FAM26E (11764081_at) / Fold change /veh FAM26E (11764081_at) / RFU ISYNA1 (11749810_s_at) / Fold change /veh ISYNA1 (11749810_s_at) / RFU ACY1 (11761880_at) / Fold change /veh ACY1 (11761880_at) / RFU 11764098_at / Fold change /veh 11764098_at / RFU SAMD14 (11745864_x_at) / Fold change /veh SAMD14 (11745864_x_at) / RFU NPB (11741838_a_at) / Fold change /veh NPB (11741838_a_at) / RFU TMPRSS6 (11731388_a_at) / Fold change /veh TMPRSS6 (11731388_a_at) / RFU KRTAP10-2 (11738614_at) / Fold change /veh KRTAP10-2 (11738614_at) / RFU ARHGAP8 /// PRR5-ARHGAP8 (11727945_x_at) / Fold change /veh ARHGAP8 /// PRR5-ARHGAP8 (11727945_x_at) / RFU KRTAP5-7 /// NADSYN1 (11734609_at) / Fold change /veh KRTAP5-7 /// NADSYN1 (11734609_at) / RFU RASL12 (11751679_a_at) / Fold change /veh RASL12 (11751679_a_at) / RFU CDKN2B (11736163_a_at) / Fold change /veh CDKN2B (11736163_a_at) / RFU PRF1 (11729649_at) / Fold change /veh PRF1 (11729649_at) / RFU, ZNF638 /// ZNF638-IT1 / Fold change vs veh, ZNF638 /// ZNF638-IT1 / RFU, PANK3 / Fold change vs veh, PANK3 / RFU, SH3YL1 / Fold change vs veh, SH3YL1 / RFU, ZEB2 / Fold change vs veh, ZEB2 / RFU, NRIP1 / Fold change vs veh, NRIP1 / RFU, PTTG1IP / Fold change vs veh, PTTG1IP / RFU, CAPN2 / Fold change vs veh, CAPN2 / RFU, MED14 / Fold change vs veh, MED14 / RFU, SNORA58 / Fold change vs veh, SNORA58 / RFU, C1orf63 / Fold change vs veh, C1orf63 / RFU, LRRFIP1 / Fold change vs veh, LRRFIP1 / RFU, NDUFAF7 / Fold change vs veh, NDUFAF7 / RFU, SLC12A2 / Fold change vs veh, SLC12A2 / RFU, IBTK / Fold change vs veh, IBTK / RFU, ESF1 / Fold change vs veh, ESF1 / Fold change vs veh, TMEM50B / RFU, TAOK1 / Fold change vs veh, TAOK1 / RFU, ACBD3 / Fold change vs veh, ACBD3 / RFU, TMA16 / Fold change vs veh, TMA16 / RFU, RWDD3 / Fold change vs veh, RWDD3 / RFU, BCAT1 / Fold change vs veh, BCAT1 / RFU, EDEM3 / Fold change vs veh, EDEM3 / RFU, TMEM33 / Fold change vs veh, TMEM33 / RFU, WDR75 / Fold change vs veh, WDR75 / RFU, AHCTF1 / Fold change vs veh, AHCTF1 / RFU, TFRC / Fold change vs veh, TFRC / RFU, ZDHHC17 / Fold change vs veh, ZDHHC17 / RFU, NOM1 / Fold change vs veh, NOM1 / RFU, ARL8B / Fold change vs veh, ARL8B / RFU, ZBTB11 / Fold change vs veh, ZBTB11 / RFU, TAMM41 / Fold change vs veh, TAMM41 / RFU, KIAA1704 /// LOC100996395 / Fold change vs veh, KIAA1704 /// LOC100996395 / RFU, ING1 / Fold change vs veh, ING1 / RFU, TRMT61B / Fold change vs veh, TRMT61B / RFU, FUBP3 / Fold change vs veh, FUBP3 / RFU, TP53 / Fold change vs veh, TP53 / RFU, TNKS2 / Fold change vs veh, TNKS2 / RFU, ZFP14 / Fold change vs veh, ZFP14 / RFU, ACTR2 / Fold change vs veh, ACTR2 / RFU, PPP3R1 / Fold change vs veh, PPP3R1 / RFU, PIK3R1 / Fold change vs veh, PIK3R1 / RFU, HNRNPA1 / Fold change vs veh, HNRNPA1 / RFU, RNF170 / Fold change vs veh, RNF170 / RFU, ZNF28 / Fold change vs veh, ZNF28 / RFU, RNGTT / Fold change vs veh, RNGTT / RFU, OGT / Fold change vs veh, OGT / RFU, BRD1 / Fold change vs veh, BRD1 / RFU, MARS / Fold change vs veh, MARS / RFU, ZNF655 / Fold change vs veh, ZNF655 / RFU, FAHD1 / Fold change vs veh, FAHD1 / RFU, BDP1 / Fold change vs veh, BDP1 / RFU, LRRCC1 / Fold change vs veh, LRRCC1 / RFU, ARID1A / Fold change vs veh, ARID1A / RFU, ZNF146 / Fold change vs veh, ZNF146 / RFU, ZNF330 / Fold change vs veh, ZNF330 / RFU, GPN3 / Fold change vs veh, GPN3 / RFU, C9orf123 / Fold change vs veh, C9orf123 / RFU, N4BP2L2 / Fold change vs veh, N4BP2L2 / RFU, ARFIP1 / Fold change vs veh, ARFIP1 / RFU, FAM179B / Fold change vs veh, FAM179B / RFU, BCL10 / Fold change vs veh, BCL10 / RFU, UHRF1BP1L / Fold change vs veh, UHRF1BP1L / RFU, BET1 / Fold change vs veh, BET1 / RFU, CNOT2 / Fold change vs veh, CNOT2 / RFU, ZNF268 / Fold change vs veh, ZNF268 / Fold change vs veh, ZNF507 / RFU, DGCR2 / Fold change vs veh, DGCR2 / RFU, WDSUB1 / Fold change vs veh, WDSUB1 / Fold change vs veh, HSP90B1 /// MIR3652 / RFU, ADSS / Fold change vs veh, ADSS / RFU, GK / Fold change vs veh, GK / RFU, ZNF148 / Fold change vs veh, ZNF148 / RFU, TAF9 / Fold change vs veh, TAF9 / RFU, SLC1A5 / Fold change vs veh, SLC1A5 / RFU, SLMO2 / Fold change vs veh, SLMO2 / RFU, ABCC4 / Fold change vs veh, ABCC4 / RFU, LOC101060439 /// RAP1B / Fold change vs veh, LOC101060439 /// RAP1B / RFU, RFX7 / Fold change vs veh, RFX7 / RFU, GTPBP10 / Fold change vs veh, GTPBP10 / RFU, CNEP1R1 / Fold change vs veh, CNEP1R1 / RFU, BIVM-ERCC5 /// ERCC5 / Fold change vs veh, BIVM-ERCC5 /// ERCC5 / RFU, ILF3 / Fold change vs veh, ILF3 / RFU 11762660_at / Fold change /veh 11762660_at / RFU VCAN (11757783_s_at) / Fold change /veh VCAN (11757783_s_at) / RFU DDX43 (11728927_at) / Fold change /veh DDX43 (11728927_at) / RFU KRT8 (11758188_x_at) / Fold change /veh KRT8 (11758188_x_at) / RFU NKD1 (11759106_at) / Fold change /veh NKD1 (11759106_at) / RFU SRD5A1 (11742802_a_at) / Fold change /veh SRD5A1 (11742802_a_at) / RFU TPSAB1 /// TPSB2 (11721975_s_at) / Fold change /veh TPSAB1 /// TPSB2 (11721975_s_at) / RFU GSTM3 (11746129_a_at) / Fold change /veh GSTM3 (11746129_a_at) / RFU IL23R (11737362_x_at) / Fold change /veh IL23R (11737362_x_at) / RFU TMEM51 (11727254_a_at) / Fold change /veh TMEM51 (11727254_a_at) / RFU PIWIL2 (11732686_x_at) / Fold change /veh PIWIL2 (11732686_x_at) / RFU ORM1 (11744905_x_at) / Fold change /veh ORM1 (11744905_x_at) / RFU CCDC152 (11743942_at) / Fold change /veh CCDC152 (11743942_at) / RFU ECM1 (11717891_a_at) / Fold change /veh ECM1 (11717891_a_at) / RFU IL23R (11748794_a_at) / Fold change /veh IL23R (11748794_a_at) / RFU TNFAIP8L3 (11732012_x_at) / Fold change /veh TNFAIP8L3 (11732012_x_at) / RFU MBOAT4 (11741988_at) / Fold change /veh MBOAT4 (11741988_at) / RFU 11764193_at / Fold change /veh 11764193_at / RFU TMEM53 (11763286_at) / Fold change /veh TMEM53 (11763286_at) / RFU MAGEB2 (11727129_at) / Fold change /veh MAGEB2 (11727129_at) / RFU TMEM200A (11744735_a_at) / Fold change /veh TMEM200A (11744735_a_at) / RFU CCDC152 (11751479_a_at) / Fold change /veh CCDC152 (11751479_a_at) / RFU FAM211A (11726209_a_at) / Fold change /veh FAM211A (11726209_a_at) / RFU RGS16 (11746705_a_at) / Fold change /veh RGS16 (11746705_a_at) / RFU VCAN (11755009_s_at) / Fold change /veh VCAN (11755009_s_at) / RFU RHOB (11743442_s_at) / Fold change /veh RHOB (11743442_s_at) / RFU RGS16 (11720943_a_at) / Fold change /veh RGS16 (11720943_a_at) / RFU RGS16 (11720944_at) / Fold change /veh RGS16 (11720944_at) / RFU, VPS4B / Fold change vs veh, VPS4B / RFU, CREB1 / Fold change vs veh, CREB1 / RFU, DNAJC13 / Fold change vs veh, DNAJC13 / RFU, GNAQ / Fold change vs veh, GNAQ / RFU, CDK5R1 / Fold change vs veh, CDK5R1 / RFU, ZRANB3 / Fold change vs veh, ZRANB3 / RFU, CUL4A / Fold change vs veh, CUL4A / RFU, CCNY / Fold change vs veh, CCNY / RFU, UFL1 / Fold change vs veh, UFL1 / RFU, COG3 / Fold change vs veh, COG3 / RFU, DIAPH2 / Fold change vs veh, DIAPH2 / RFU, SKA2 / Fold change vs veh, SKA2 / RFU, AFF3 / Fold change vs veh, AFF3 / RFU, LMF1 / Fold change vs veh, LMF1 / RFU, IPO11 / Fold change vs veh, IPO11 / RFU, DFFB / Fold change vs veh, DFFB / RFU, FOXP1 / Fold change vs veh, FOXP1 / RFU, CARD8 / Fold change vs veh, CARD8 / RFU, STRN3 / Fold change vs veh, STRN3 / RFU, ADK / Fold change vs veh, ADK / RFU, RASSF2 / Fold change vs veh, RASSF2 / RFU, WIPF1 / Fold change vs veh, WIPF1 / RFU, LARP1B / Fold change vs veh, LARP1B / RFU, RASA1 / Fold change vs veh, RASA1 / RFU, RB1 / Fold change vs veh, RB1 / RFU, PPFIA1 / Fold change vs veh, PPFIA1 / RFU, MAT2A / Fold change vs veh, MAT2A / RFU, CCT5 / Fold change vs veh, CCT5 / RFU, WDR92 / Fold change vs veh, WDR92 / RFU, CUX1 / Fold change vs veh, CUX1 / RFU, TTC7A / Fold change vs veh, TTC7A / RFU, TMEM135 / Fold change vs veh, TMEM135 / RFU, DEPTOR / Fold change vs veh, DEPTOR / RFU, CPM / Fold change vs veh, CPM / RFU, DNAJB6 / Fold change vs veh, DNAJB6 / RFU, CACNA2D3 / Fold change vs veh, CACNA2D3 / RFU, DTX4 / Fold change vs veh, DTX4 / RFU, TFCP2 / Fold change vs veh, TFCP2 / RFU, GMCL1 /// GMCL1P1 / Fold change vs veh, GMCL1 /// GMCL1P1 / RFU, AEBP2 / Fold change vs veh, AEBP2 / RFU, SNHG1 /// SNORD22 /// SNORD25 /// SNORD26 /// SNORD27 /// SNORD28 /// SNORD29 /// SNORD31 / Fold change vs veh, SNHG1 /// SNORD22 /// SNORD25 /// SNORD26 /// SNORD27 /// SNORD28 /// SNORD29 /// SNORD31 / Fold change (Aza/veh), C12orf56 (ProbeSet 11735607_a_at) / Fold change (ACY-1035/veh), C12orf56 (ProbeSet 11735607_a_at) / Fold change (Aza/veh), FGFR1OP (ProbeSet 11751329_s_at) / Fold change (ACY-1035/veh), FGFR1OP (ProbeSet 11751329_s_at) / Fold change (Aza/veh), VPS36 (ProbeSet 11739960_a_at) / Fold change (ACY-1035/veh), VPS36 (ProbeSet 11739960_a_at) / RFU SYPL1 (11715823_x_at) / Fold change /veh SYPL1 (11715823_x_at) / RFU IGFBP7 (11715501_s_at) / Fold change /veh IGFBP7 (11715501_s_at) / RFU REEP3 (11722064_at) / Fold change /veh REEP3 (11722064_at) / RFU IGLL1 (11728026_x_at) / Fold change /veh IGLL1 (11728026_x_at): dose or concentration left out as unconfirmed. Format: cell-based, human. The conditions noted are these: MV-4-11 cells, 48 hours.

`Nc1ncn([C@@H]2O[C@H](CO)[C@@H](O)[C@H]2O)c(=O)n1` [azacitidine]: the “RFU TMEM200A (11744735_a_at)” value is recorded as 6.62 RFU.

For the origin of these results see PMC5218480 (PLoS ONE, 2017).
